Reference: patent US6462038B1, “Androgen receptor modulator compounds and methods” (Ligand Pharmaceuticals, Inc., priority 1999, dated 2002)
Like-named read-outs stand apart in the source and are kept apart here.

Tests used:
[1] = biological target: T1, hAR (Homo sapiens, UniProt P10275); assay: co-transfection assay, AR agonist, CV-1 cells; assay type: cell-based; conditions: for AR Agonist CV-1 Cells Efficacy (%): relative to maximum LUC production by reference agonist
T1 construct: expressed in transfected cells; host or cells: CV-1 cells (African green monkey kidney fibroblasts)
T1 sequence (P10275 1-920): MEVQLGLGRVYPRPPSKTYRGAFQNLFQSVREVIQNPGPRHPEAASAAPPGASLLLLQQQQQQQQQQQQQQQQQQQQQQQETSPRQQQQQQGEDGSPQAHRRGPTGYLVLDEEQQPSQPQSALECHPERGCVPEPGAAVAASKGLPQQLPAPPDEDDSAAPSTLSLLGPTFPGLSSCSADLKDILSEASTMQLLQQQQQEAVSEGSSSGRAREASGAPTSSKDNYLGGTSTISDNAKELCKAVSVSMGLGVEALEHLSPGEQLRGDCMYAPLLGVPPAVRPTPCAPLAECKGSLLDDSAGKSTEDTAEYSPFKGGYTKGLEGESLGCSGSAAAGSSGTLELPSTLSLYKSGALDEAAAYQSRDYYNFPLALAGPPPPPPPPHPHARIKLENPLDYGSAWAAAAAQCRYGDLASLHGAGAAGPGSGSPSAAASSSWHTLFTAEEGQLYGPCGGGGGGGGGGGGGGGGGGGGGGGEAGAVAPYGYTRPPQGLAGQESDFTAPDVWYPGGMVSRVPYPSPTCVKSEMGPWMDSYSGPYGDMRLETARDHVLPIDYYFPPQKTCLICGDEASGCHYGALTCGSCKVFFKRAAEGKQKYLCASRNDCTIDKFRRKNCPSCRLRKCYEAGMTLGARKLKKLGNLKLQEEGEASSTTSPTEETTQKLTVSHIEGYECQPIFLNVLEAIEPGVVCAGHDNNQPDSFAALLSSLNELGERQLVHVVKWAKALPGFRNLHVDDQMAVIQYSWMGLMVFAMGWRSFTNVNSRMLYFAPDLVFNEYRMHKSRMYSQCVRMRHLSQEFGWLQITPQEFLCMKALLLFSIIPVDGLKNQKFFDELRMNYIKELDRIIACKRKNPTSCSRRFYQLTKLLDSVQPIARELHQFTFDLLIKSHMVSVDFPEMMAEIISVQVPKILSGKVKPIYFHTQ

[2] = biological target: T1, hAR; assay: co-transfection assay, AR antagonist (in presence of DHT), CV-1 cells; assay type: cell-based; conditions: for AR Antagonist CV-1 Cells Efficacy (%): maximal inhibition
[3] = AR Agonist CV-1 Cells Potency (nM), hAR in CV-1 cells

SMILES	EC50 [1] [nM]	AR Agonist CV-1 Cells Efficacy (%) ([1]; hAR in CV-1 cells)	IC50 [2] [nM]	AR Antagonist CV-1 Cells Efficacy (%) ([2]; hAR in CV-1 cells, DHT at EC50)	EC50 ([1]; AR Agonist CV-1 Cells Potency (nM)) [nM]	EC50 [1, 3] [nM]	IC50 ([2]; read-out: AR Antagonist CV-1 Cells Potency, hAR in CV-1 cells, DHT at EC50) [nM]
CC[C@@H]1Oc2cc3[nH]c(=O)cc(C(F)(F)F)c3cc2N(CC(F)(F)F)[C@H]1C (racemic) [Compound 128, (±)-trans-3-Ethyl-1,2,3,6-tetrahydro-2-methyl-1-(2,2,2-trifluoroethyl)-9-(trifluoromethyl)-7H-[1,4]oxazino[3,2-g]quinolin-7-one]	> 10000	na (na = not active (i.e. efficacy of < 20 and potency of > 10,000 nM for the cotransfection assay, and Ki > 1000 nM for the binding assay))	1340	42%	–	–	–
CC[C@H]1Oc2cc3[nH]c(=O)cc(C(F)(F)F)c3cc2N(CC(F)(F)F)[C@H]1C (racemic) [Compound 129, (±)-cis-3-Ethyl-1,2,3,6-tetrahydro-2-methyl-1-(2,2,2-trifluoroethyl)-9-(trifluoromethyl)-7H-[1,4]oxazino[3,2-g]quinolin-7-one]	1340	42%	13	76%	–	–	–
O=c1cc(C(F)(F)F)c2cc3c(cc2[nH]1)OCC(CO)N3CC(F)(F)F (racemic) [Compound 130, (±)-1,2,3,6-Tetrahydro-2-(hydroxymethyl)-1-(2,2,2-trifluoroethyl)-9-(trifluoromethyl)-7H-[1,4]oxazino[3,2-g]quinolin-7-one]	–	48%	–	na (na = not active (i.e. efficacy of < 20 and potency of > 10,000 nM for the cotransfection assay, and Ki > 1000 nM for the binding assay))	–	–	–
CC(=O)OCC1COc2cc3[nH]c(=O)cc(C(F)(F)F)c3cc2N1CC(F)(F)F (racemic) [Compound 131, (±)-1,2,3,6-Tetrahydro-2-(acetoxymethyl)-1-(2,2,2-trifluoroethyl)-9-(trifluoromethyl)-7H-[1,4]oxazino[3,2-g]quinolin-7-one]	31	46%	> 10000	na (na = not active (i.e. efficacy of < 20 and potency of > 10,000 nM for the cotransfection assay, and Ki > 1000 nM for the binding assay))	–	–	–
COCC1COc2cc3[nH]c(=O)cc(C(F)(F)F)c3cc2N1CC(F)(F)F (racemic) [Compound 132, (±)-1,2,3,6-Tetrahydro-2-(methoxymethyl)-1-(2,2,2-trifluoroethyl)-9-(trifluoromethyl)-7H-[1,4]oxazino[3,2-g]quinolin-7-one]	–	72%	> 10000	na (na = not active (i.e. efficacy of < 20 and potency of > 10,000 nM for the cotransfection assay, and Ki > 1000 nM for the binding assay))	1.7	–	–
CCC1COc2cc3[nH]c(=O)cc(C(F)(F)F)c3cc2N1CC(F)(F)F (racemic) [Compound 145, (±)-2-Ethyl-1,2,3,6-tetrahydro-1-(2,2,2-trifluoroethyl)-9-(trifluoromethyl)-7H-[1,4]oxazino[3,2-g]quinolin-7-one]	–	69%	–	30%	–	–	–
CC1COc2cc3[nH]c(=O)cc(C(F)(F)F)c3cc2N1CC(F)(F)F (single isomer, unassigned; (+)) [Compound 124, (+)-1,2,3,6-Tetrahydro-2-methyl-1-(2,2,2-trifluoroethyl)-9-(trifluoromethyl)-7H-[1,4]oxazino[3,2-g]quinolin-7-one]	–	54%	> 10000	na (na = not active (i.e. efficacy of < 20 and potency of > 10,000 nM for the cotransfection assay, and Ki > 1000 nM for the binding assay))	–	3.6	–
CC1COc2cc3[nH]c(=O)cc(C(F)(F)F)c3cc2N1CC(F)(F)F (single isomer, unassigned; (-)) [Compound 125, (−)-1,2,3,6-Tetrahydro-2-methyl-1-(2,2,2-trifluoroethyl)-9-(trifluoromethyl)-7H-[1,4]oxazino[3,2-g]quinolin-7-one]	–	74%	–	na (na = not active (i.e. efficacy of < 20 and potency of > 10,000 nM for the cotransfection assay, and Ki > 1000 nM for the binding assay))	–	0.7	> 10000
O=c1[nH]c2cc3c(cc2c(C(F)(F)F)c1F)N(CC(F)(F)F)CCO3 [Compound 106, 8-Fluoro-1,2,3,6-tetrahydro-1-(2,2,2-trifluoroethyl)-9-(trifluoromethyl)-7H-[1,4]oxazino[3,2-g]quinolin-7-one]	4	80%	> 10000	na (na = not active (i.e. efficacy of < 20 and potency of > 10,000 nM for the cotransfection assay, and Ki > 1000 nM for the binding assay))	–	–	–
O=c1[nH]c2cc3c(cc2c(C(F)(F)F)c1Cl)N(CC(F)(F)F)CCO3 [Compound 107, 8-Chloro-1,2,3,6-tetrahydro-1-(2,2,2-trifluoroethyl)-9-(trifluoromethyl)-7H-[1,4]oxazino[3,2-g]quinolin-7-one]	26	92%	> 10000	na (na = not active (i.e. efficacy of < 20 and potency of > 10,000 nM for the cotransfection assay, and Ki > 1000 nM for the binding assay))	–	–	–
O=c1cc(C(F)F)c2cc3c(cc2[nH]1)OCCN3CC(F)(F)F [Compound 108, 9-(Difluoromethyl)-1,2,3,6-tetrahydro-1-(2,2,2-trifluoroethyl)-7H-[1,4]oxazino[3,2-g]quinolin-7-one]	14	80%	> 10000	na (na = not active (i.e. efficacy of < 20 and potency of > 10,000 nM for the cotransfection assay, and Ki > 1000 nM for the binding assay))	–	–	–
Cn1c(=O)cc(C(F)(F)F)c2cc3c(cc21)OCCN3CC(F)(F)F [Compound 109, 1,2,3,6-Tetrahydro-6-methyl-1-(2,2,2-trifluoroethyl)-9-(trifluoromethyl)-7H-[1,4]oxazino[3,2-g]quinolin-7-one]	> 10000	na (na = not active (i.e. efficacy of < 20 and potency of > 10,000 nM for the cotransfection assay, and Ki > 1000 nM for the binding assay))	24	57%	–	–	–
FC(F)(F)CN1CCOc2cc3[nH]c(=S)cc(C(F)(F)F)c3cc21 [Compound 110, 1,2,3,6-Tetrahydro-1-(2,2,2-trifluoroethyl)-9-(trifluoromethyl)-7H-[1,4]oxazino[3,2-g]quinolin-7-thione]	44	90%	> 10000	na (na = not active (i.e. efficacy of < 20 and potency of > 10,000 nM for the cotransfection assay, and Ki > 1000 nM for the binding assay))	–	–	–
CC(C)CN1CCOc2cc3c(cc21)c(C(F)(F)F)cc(=O)n3C [Compound 113, 1,2,3,6-Tetrahydro-1-isobutyl-6-methyl-9-(trifluoromethyl)-7H-[1,4]oxazino[3,2-g]quinolin-7-one]	> 10000	na (na = not active (i.e. efficacy of < 20 and potency of > 10,000 nM for the cotransfection assay, and Ki > 1000 nM for the binding assay))	61	78%	–	–	–
O=c1cc(C(F)(F)F)c2cc3c(cc2[nH]1)OCCN3 [Compound 120, 1,2,3,6-Tetrahydro-9-(trifluoromethyl)-7H-[1,4]oxazino[3,2-g]quinolin-7-one]	–	na (na = not active (i.e. efficacy of < 20 and potency of > 10,000 nM for the cotransfection assay, and Ki > 1000 nM for the binding assay))	–	69%	–	–	–
